One assay deals with KRas(G12V) (Homo sapiens (Human), UniProt P01116, G12V). The experiment in a line: KRas(G12V) GDP HTRF (BODIPY-GDP exchange TR-FRET). The class given is biochemical.
The target in another assay is KRas (Homo sapiens (Human), UniProt P01116). The experiment in a line: KRas GDP HTRF (BODIPY-GDP exchange TR-FRET). In kind it is biochemical. In short, it runs like this: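 Inhibition of SOS1-mediated exchange of BODIPY-GDP on KRAS G12D, started with 3 nM recombinant human SOS1 and 300 nM BODIPY-GDP and read after 60 min. TR-FRET excitation 337 nm, ratio 520/490 nm ×10,000. IC50 from 4-parameter Hill fit of normalized data.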

Another assay concerns SW480 cells. The experiment in a line: SW480 proliferation assay. The class given is cell-based. Particulars: read-out: SW480 Prolif IC50 (G12V).
A further assay concerns PC-9 cells. The experiment in a line: PC9 proliferation assay. The class given is cell-based, human. Particulars: read-out: PC9 Prolif IC50 (G12V).

Where two headings read alike, the source gives them in different places.

Sequence of KRas (P01116-2 other isoform, or with tags, fused parts or gaps): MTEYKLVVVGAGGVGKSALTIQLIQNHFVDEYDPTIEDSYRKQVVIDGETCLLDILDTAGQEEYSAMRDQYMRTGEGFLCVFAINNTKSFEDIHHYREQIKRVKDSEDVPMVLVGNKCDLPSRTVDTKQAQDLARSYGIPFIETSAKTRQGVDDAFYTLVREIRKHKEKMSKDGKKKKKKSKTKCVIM
Sequence of KRas(G12V) (P01116-2 other isoform, or with tags, fused parts or gaps G12V): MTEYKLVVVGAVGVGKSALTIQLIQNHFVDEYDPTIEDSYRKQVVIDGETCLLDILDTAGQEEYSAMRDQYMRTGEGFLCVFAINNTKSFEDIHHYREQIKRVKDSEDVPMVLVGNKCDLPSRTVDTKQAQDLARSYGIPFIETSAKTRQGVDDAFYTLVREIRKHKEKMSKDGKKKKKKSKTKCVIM

With `Cc1cc(N)nc(-c2cc3ncnc4c3c(c2Cl)OCCN4[C@H](C)c2cccnc2N)c1C(F)(F)F` [Example 5, (R)-6-(4-(1-(2-aminopyridin-3-yl)ethyl)-8-chloro-5,6-dihydro-4H-[1,4]oxazepino[5,6,7-de]quinazolin-9-yl)-4-methyl-5-(trifluoromethyl)pyridin-2-amine], the concentration for half-maximal inhibition (IC50) at KRas(G12V) was 1.5 nM; against KRas, 9.2 nM; in the assay on SW480 cells (Homo sapiens, SW480, SW480), 1500 nM; in the assay with PC-9 cells (Homo sapiens, PC-9, PC9) it was 9000 nM.
On the same counts, the results for `Cc1cc(N)nc(-c2c(F)c3c4c(nc(OC[C@@]56CCCN5C[C@H](F)C6)nc4c2F)N([C@H](C)c2cccnc2N)CCO3)c1C(F)(F)F` (atropisomer, axis not shown; (aS)) [Example 66a, 6-((R)-4-((R)-1-(2-aminopyridin-3-yl)ethyl)-8,10-difluoro-2-(((2R,7aS)-2-fluorotetrahydro-1H-pyrrolizin-7a(5H)-yl)methoxy)-5,6-dihydro-4H-[1,4]oxazepino[5,6,7-de]quinazolin-9-yl)-4-methyl-5-(trifluoromethyl)pyridin-2-amine] are 0.05 nM, 0.12 nM, 3.1 nM and 2800 nM.
In the same order, the values of `Cc1cc(N)nc(-c2c(Cl)c3c4c(nc(OC[C@@H]5C[C@]6(CN5C)CC6(F)F)nc4c2F)N([C@H](C)c2cccnc2N)CCO3)c1C(F)(F)F` (atropisomer, axis not shown) [Example 68, 6-((R)-4-((R)-1-(2-aminopyridin-3-yl)ethyl)-8-chloro-2-(((3R,6S)-1,1-difluoro-5-methyl-5-azaspiro[2.4]heptan-6-yl)methoxy)-10-fluoro-5,6-dihydro-4H-[1,4]oxazepino[5,6,7-de]quinazolin-9-yl)-4-methyl-5-(trifluoromethyl)pyridin-2-amine] are 0.1 nM, 0.31 nM, 11 nM and 1800 nM.
For the molecule `Cc1cc(N)nc(-c2c(Cl)c3c4c(nc(OC[C@@]56CCCN5C[C@H](F)C6)nc4c2F)N(C)CCO3)c1C(F)(F)F` (single isomer, unassigned) [Example 41a], the IC50 came out at 1.8 nM against KRas(G12V); 11 nM against KRas; 1000 nM in the assay on SW480 cells (Homo sapiens, SW480, SW480); 3800 nM with PC-9 cells (Homo sapiens, PC-9, PC9).
As to `Cc1cc(N)nc(-c2c(Cl)c3c4c(nc(OC[C@@H]5CC(F)(F)CN5C)nc4c2F)N([C@H](C)c2cncnc2N)CCO3)c1C(F)(F)F` (atropisomer, axis not shown) [Example 83a, 5-((R)-1-((R)-9-(6-amino-4-methyl-3-(trifluoromethyl)pyridin-2-yl)-8-chloro-2-(((S)-4,4-difluoro-1-methylpyrrolidin-2-yl)methoxy)-10-fluoro-5,6-dihydro-4H-[1,4]oxazepino[5,6,7-de]quinazolin-4-yl)ethyl)pyrimidin-4-amine], the IC50 at KRas(G12V) came out at 0.19 nM; at KRas, 0.684 nM; in the assay with SW480 cells (Homo sapiens, SW480, SW480), 23 nM; with PC-9 cells (Homo sapiens, PC-9, PC9), 5900 nM.
In the same order, the values of `Cc1cc(N)nc(-c2c(Cl)c3c4c(nc(OC[C@]5(C)CC(F)(F)CN5C)nc4c2F)N([C@H](C)c2cccnc2N)CCO3)c1C(F)(F)F` (atropisomer, axis not shown) [Example 122a, 6-((R)-4-((R)-1-(2-aminopyridin-3-yl)ethyl)-8-chloro-2-(((S)-4,4-difluoro-1,2-dimethylpyrrolidin-2-yl)methoxy)-10-fluoro-5,6-dihydro-4H-[1,4]oxazepino[5,6,7-de]quinazolin-9-yl)-4-methyl-5-(trifluoromethyl)pyridin-2-amine] are 0.5 nM, 4.49 nM, 180 nM and 2900 nM.
Turning to `C[C@H](c1cccnc1N)N1CCOc2c(Cl)c(-c3c(F)ccc4cnn(C)c34)c(F)c3nc(OC[C@@]45CCCN4C[C@H](F)C5)nc1c23` (single isomer, unassigned) [Example 105a], the IC50 at KRas(G12V) is 0.08 nM; at KRas it was 0.23 nM; in the assay with SW480 cells (Homo sapiens, SW480, SW480), 16 nM; in the assay with PC-9 cells (Homo sapiens, PC-9, PC9) it was 7100 nM.
Take `Cc1cc(N)nc(-c2cc3ncnc4c3c(c2Cl)OCCN4C(c2cccnc2N)C2CC2)c1C(F)(F)F` (stereo not shown) [Example 28, 6-(4-((2-aminopyridin-3-yl)(cyclopropyl)methyl)-8-chloro-5,6-dihydro-4H-[1,4]oxazepino[5,6,7-de]quinazolin-9-yl)-4-methyl-5-(trifluoromethyl)pyridin-2-amine]: the IC50 stood at 8.2 nM against KRas(G12V); 110 nM on KRas; 7800 nM in the assay on SW480 cells (Homo sapiens, SW480, SW480); 17000 nM in the assay on PC-9 cells (Homo sapiens, PC-9, PC9).
As for `C=C1CN2CCC[C@@]2(COc2nc3c4c(c(Cl)c(-c5nc(N)cc(C)c5C(F)(F)F)c(F)c4n2)OCCN3[C@H](C)c2cccnc2N)C1` (atropisomer, axis not shown) [Example 116, 6-((R)-4-((R)-1-(2-aminopyridin-3-yl)ethyl)-8-chloro-10-fluoro-2-(((S)-2-methylenetetrahydro-1H-pyrrolizin-7a(5H)-yl)methoxy)-5,6-dihydro-4H-[1,4]oxazepino[5,6,7-de]quinazolin-9-yl)-4-methyl-5-(trifluoromethyl)pyridin-2-amine], the IC50 against KRas(G12V) worked out at 0.074 nM; at KRas it was 0.0519 nM; with SW480 cells (Homo sapiens, SW480, SW480) it was 4.6 nM; in the assay on PC-9 cells (Homo sapiens, PC-9, PC9), 1600 nM.
On the same counts, the results for `Cc1cc(N)nc(-c2c(Cl)c3c4c(nc(OCCn5cccn5)nc4c2F)N([C@H](C)c2cccnc2N)CCO3)c1C(F)(F)F` (atropisomer, axis not shown) [Example 136, 6-((R)-2-(2-(1H-pyrazol-1-yl)ethoxy)-4-((R)-1-(2-aminopyridin-3-yl)ethyl)-8-chloro-10-fluoro-5,6-dihydro-4H-[1,4]oxazepino[5,6,7-de]quinazolin-9-yl)-4-methyl-5-(trifluoromethyl)pyridin-2-amine] are 0.21 nM, 0.83 nM, 63 nM and 8600 nM.
For the molecule `Cc1cc(N)nc(-c2c(Cl)c3c4c(nc(OC[C@@]56CCCN5C[C@H](F)C6)nc4c2F)N([C@H](C)c2cccnc2N)CCO3)c1C(F)(F)F` (atropisomer, axis not shown; (aS)) [Example 107, (S)-6-(4-((R)-1-(2-aminopyridin-3-yl)ethyl)-8-chloro-10-fluoro-2-(((2R,7aS)-2-fluorotetrahydro-1H-pyrrolizin-7a(5H)-yl)methoxy)-5,6-dihydro-4H-[1,4]oxazepino[5,6,7-de]quinazolin-9-yl)-4-methyl-5-(trifluoromethyl)pyridin-2-amine], the IC50 at KRas(G12V) is 90 nM; at KRas, 240 nM; in the assay on SW480 cells (SW480) it was 560 nM; in the assay on PC-9 cells (PC9), 4000 nM.
Regarding `Cc1cc(N)nc(-c2cc3nc(OC[C@@H]4C[C@@H](F)CN4C)nc4c3c(c2Cl)OCCN4Cc2cccnc2N)c1C(F)(F)F` [Example 49, 6-(4-((2-aminopyridin-3-yl)methyl)-8-chloro-2-(((2S,4R)-4-fluoro-1-methylpyrrolidin-2-yl)methoxy)-5,6-dihydro-4H-[1,4]oxazepino[5,6,7-de]quinazolin-9-yl)-4-methyl-5-(trifluoromethyl)pyridin-2-amine], the IC50 on KRas(G12V) was 0.57 nM; against KRas, 3.8 nM; with SW480 cells (Homo sapiens, SW480, SW480), 1100 nM; with PC-9 cells (Homo sapiens, PC-9, PC9), 3800 nM.
Consider `Cc1cc(N)nc(-c2c(Cl)c3c4c(nc(OC[C@@]56CCCN5C[C@H](F)C6)nc4c2F)N([C@@H](C)c2nccnc2N)CCO3)c1C(F)(F)F` (atropisomer, axis not shown; (aS)) [Example 80, 3-((S)-1-((R)-9-(6-amino-4-methyl-3-(trifluoromethyl)pyridin-2-yl)-8-chloro-10-fluoro-2-(((2R,7aS)-2-fluorotetrahydro-1H-pyrrolizin-7a(5H)-yl)methoxy)-5,6-dihydro-4H-[1,4]oxazepino[5,6,7-de]quinazolin-4-yl)ethyl)pyrazin-2-amine], for which the IC50 came to 8.2 nM on KRas(G12V); 23.6 nM on KRas; 940 nM in the assay on SW480 cells (Homo sapiens, SW480, SW480); 1200 nM in the assay with PC-9 cells (Homo sapiens, PC-9, PC9).
On the same counts, the results for `Cc1cc(N)nc(-c2c(Cl)c3c4c(nc(OCC5CCCN(C)C5)nc4c2F)N([C@H](C)c2cccnc2N)CCO3)c1C(F)(F)F` (stereo partly drawn) [Example 137, 6-((9R)-4-((R)-1-(2-aminopyridin-3-yl)ethyl)-8-chloro-10-fluoro-2-((1-methylpiperidin-3-yl)methoxy)-5,6-dihydro-4H-[1,4]oxazepino[5,6,7-de]quinazolin-9-yl)-4-methyl-5-(trifluoromethyl)pyridin-2-amine] are 0.07 nM, 0.159 nM, 140 nM and 1100 nM.
On the same counts, the results for `Cc1cc(N)c(F)c(-c2c(Cl)c3c4c(nc(OC[C@@]56CCCN5C[C@H](F)C6)nc4c2F)N([C@H](C)c2cccnc2N)CCO3)c1C(F)(F)F` (single isomer, unassigned) [Example 73a] are 0.11 nM, 0.27 nM, 2.6 nM and 2300 nM.
On the same counts, the results for `COc1nc2c3c(c(Cl)c(-c4nc(N)cc(C)c4C(F)(F)F)c(F)c3n1)OCCN2[C@H](C)c1cccnc1N` (atropisomer, axis not shown) [Example 155, 6-((R)-4-((R)-1-(2-aminopyridin-3-yl)ethyl)-8-chloro-10-fluoro-2-methoxy-5,6-dihydro-4H-[1,4]oxazepino[5,6,7-de]quinazolin-9-yl)-4-methyl-5-(trifluoromethyl)pyridin-2-amine] are 0.45 nM, 2.5 nM, 220 nM and 10000 nM.

The record behind these values is patent US20240383915A1, “OXAZEPINE COMPOUNDS AND USES THEREOF IN THE TREATMENT OF CANCER” (Genentech, Inc., priority 2021, published 2024).
